Experimental data reported in ChEMBL document CHEMBL6121070, “Covalent-Allosteric Inhibitors: Do We Get the Best of Both Worlds?” (J Med Chem, 2025).
Each block holds one molecule with its values, some of them ahead of it.

Columns and labels:
[1] = biological target: T1, Tyrosine-protein phosphatase non-receptor type 11 (Homo sapiens, UniProt Q06124); test: Binding affinity to SHP2 (unknown origin) assessed as inhibition constant
T1 sequence (Q06124 whole entry): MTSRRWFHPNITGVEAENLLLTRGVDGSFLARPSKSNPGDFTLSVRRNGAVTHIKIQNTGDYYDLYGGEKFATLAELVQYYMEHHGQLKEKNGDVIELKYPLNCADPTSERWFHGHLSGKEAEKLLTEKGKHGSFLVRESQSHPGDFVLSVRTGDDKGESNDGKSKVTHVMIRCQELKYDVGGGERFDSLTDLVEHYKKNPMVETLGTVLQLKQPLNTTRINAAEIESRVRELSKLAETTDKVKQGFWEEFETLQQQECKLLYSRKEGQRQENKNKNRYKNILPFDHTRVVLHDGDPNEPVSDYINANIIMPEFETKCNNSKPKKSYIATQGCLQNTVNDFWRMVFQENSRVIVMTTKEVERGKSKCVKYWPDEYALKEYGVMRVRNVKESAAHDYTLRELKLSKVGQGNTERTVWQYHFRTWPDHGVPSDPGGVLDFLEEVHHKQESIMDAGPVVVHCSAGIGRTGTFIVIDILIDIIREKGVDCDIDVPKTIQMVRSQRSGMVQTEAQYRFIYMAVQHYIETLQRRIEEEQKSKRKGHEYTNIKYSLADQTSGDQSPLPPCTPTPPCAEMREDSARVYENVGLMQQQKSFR

[2] = biological target: T2, Tyrosine-protein phosphatase non-receptor type 1 (Homo sapiens, UniProt P18031); test: Inhibition of 6xHis-tagged human PTP1B catalytic domain using pNPP as substrate by […] based assay
T2 sequence (P18031 whole entry): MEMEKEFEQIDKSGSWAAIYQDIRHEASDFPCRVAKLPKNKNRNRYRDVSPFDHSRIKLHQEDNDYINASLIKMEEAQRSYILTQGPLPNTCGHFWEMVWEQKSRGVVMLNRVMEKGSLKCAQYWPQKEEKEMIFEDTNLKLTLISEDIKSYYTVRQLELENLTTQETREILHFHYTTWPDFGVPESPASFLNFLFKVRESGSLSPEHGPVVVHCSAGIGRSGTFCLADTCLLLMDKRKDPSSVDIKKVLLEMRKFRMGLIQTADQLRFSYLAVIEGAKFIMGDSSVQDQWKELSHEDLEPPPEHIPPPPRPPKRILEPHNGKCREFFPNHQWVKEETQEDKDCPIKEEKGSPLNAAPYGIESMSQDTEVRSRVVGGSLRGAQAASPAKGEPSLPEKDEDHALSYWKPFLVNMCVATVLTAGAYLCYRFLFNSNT

[3] = Covalent allosteric inhibition of full length AKT (unknown origin); parameters: species or system Homo sapiens
[4] = Non-competitive allosteric inhibition of PTP1B (unknown origin) transformed in Escherichia coli BL21; parameters: species or system Homo sapiens

- Ki [1]: 279 µM
- IC50 [2]: 35 µM
SMILES: C=CC(=O)Nc1ccnc2ccccc12

- Ki [3]: 0.0069 µM
SMILES: C=CC(=O)Nc1cccc(C(=O)NC2CCN(Cc3ccc(-c4nc5cc[nH]c(=O)c5cc4-c4ccccc4)cc3)CC2)c1

SMILES: CN(C)CCSSCC(=O)Nc1cc(-c2ccc(F)cc2F)ccc1O
- Ki [4]: 7.1 µM
